According to EPA's CvTdb concentration-time database:

Legend:
Rat [1] = test: concentration in plasma after dosing
Rat [2] = test: concentration in liver after dosing; details: oral
Rat [3] = test: concentration in kidney after dosing; details: oral
Rat [4] = test: concentration in brain after dosing; details: oral

O=C(O)CCC(F)(F)C(F)(F)C(F)(F)C(F)(F)C(F)(F)C(F)(F)C(F)(F)F [Fluorotelomer acid 7+3]
Rat [1]
Details | concentration in plasma [ng/mL]
0.25 h, dosed: 678-39-7, 12 mg/kg, iv, Male, F344 | 45.5
0.25 h, dosed: 678-39-7, 40 mg/kg, iv, Male, F344 | 80.9
0.25 h, dosed: Fluorotelomer alcohol 8+2, 12 mg/kg, oral, Male, Harlan Sprague Dawley | 21.6
0.5 h, dosed: 678-39-7, 12 mg/kg, iv, Male, F344 | 157
0.5 h, dosed: 678-39-7, 40 mg/kg, iv, Female, Harlan Sprague-Dawley | 400
0.5 h, dosed: 678-39-7, 40 mg/kg, iv, Male, F344 | 640
0.5 h, dosed: Fluorotelomer alcohol 8+2, 12 mg/kg, oral, Male, Harlan Sprague Dawley | 123
0.75 h, dosed: 678-39-7, 12 mg/kg, iv, Male, F344 | 242
0.75 h, dosed: 678-39-7, 40 mg/kg, iv, Female, Harlan Sprague-Dawley | 773
0.75 h, dosed: Fluorotelomer alcohol 8+2, 12 mg/kg, oral, Male, Harlan Sprague Dawley | 405
1 h, dosed: 678-39-7, 12 mg/kg, iv, Male, F344 | 455
1 h, dosed: 678-39-7, 40 mg/kg, iv, Female, Harlan Sprague-Dawley | 1490
1 h, dosed: Fluorotelomer alcohol 8+2, 12 mg/kg, oral, Male, Harlan Sprague Dawley | 317
3 h, dosed: 678-39-7, 12 mg/kg, iv, Male, F344 | 700
3 h, dosed: 678-39-7, 40 mg/kg, iv, Male, F344 | 2420
3 h, dosed: Fluorotelomer alcohol 8+2, 12 mg/kg, oral, Male, Harlan Sprague Dawley | 794
5 min, dosed: 678-39-7, 12 mg/kg, iv, Male, F344 | 8.32
5 min, dosed: 678-39-7, 40 mg/kg, iv, Male, F344 | 21.4
6 h, dosed: 678-39-7, 12 mg/kg, iv, Male, F344 | 762
6 h, dosed: 678-39-7, 40 mg/kg, iv, Male, F344 | 1630
6 h, dosed: Fluorotelomer alcohol 8+2, 12 mg/kg, oral, Male, Harlan Sprague Dawley | 619
9 h, dosed: 678-39-7, 12 mg/kg, iv, Male, F344 | 110
9 h, dosed: 678-39-7, 40 mg/kg, iv, Female, Harlan Sprague-Dawley | 366
9 h, dosed: 678-39-7, 40 mg/kg, iv, Male, F344 | 481
9 h, dosed: Fluorotelomer alcohol 8+2, 12 mg/kg, oral, Male, Harlan Sprague Dawley | 143
12 h, dosed: 678-39-7, 12 mg/kg, iv, Male, F344 | 63.3
12 h, dosed: 678-39-7, 40 mg/kg, iv, Female, Harlan Sprague-Dawley | 130
12 h, dosed: Fluorotelomer alcohol 8+2, 12 mg/kg, oral, Male, Harlan Sprague Dawley | 159
24 h, dosed: 678-39-7, 12 mg/kg, iv, Male, F344 | 98.6
24 h, dosed: 678-39-7, 40 mg/kg, iv, Female, Harlan Sprague-Dawley | 498
24 h, dosed: Fluorotelomer alcohol 8+2, 12 mg/kg, oral, Male, Harlan Sprague Dawley | 189
48 h, dosed: Fluorotelomer alcohol 8+2, 12 mg/kg, oral, Male, Harlan Sprague Dawley | 112
192 h, dosed: 678-39-7, 12 mg/kg, iv, Male, F344 | 22.5
192 h, dosed: 678-39-7, 40 mg/kg, iv, Male, F344 | 134
192 h, dosed: Fluorotelomer alcohol 8+2, 12 mg/kg, oral, Male, Harlan Sprague Dawley | 42.1
192 h, dosed: Fluorotelomer alcohol 8+2, 24 mg/kg, oral, Male, Harlan Sprague Dawley | 53

Details | concentration in brain, Rat [4] [ng/g] | concentration in kidney, Rat [3] [ng/g] | concentration in liver, Rat [2] [ng/g]
0.5 h, dosed: Fluorotelomer alcohol 8+2, 24 mg/kg, Male, Harlan Sprague Dawley | 109 | 224 | 300
0.5 h, dosed: Fluorotelomer alcohol 8+2, 24 mg/kg, Male, Harlan Sprague Dawley - this seems too small | 47.2 | 129 | 195
0.5 h, dosed: Fluorotelomer alcohol 8+2, 80 mg/kg, Female, Harlan Sprague Dawley | 139 | 418 | 1070
1 h, dosed: Fluorotelomer alcohol 8+2, 24 mg/kg, Male, Harlan Sprague Dawley | 130 | 291 | 784
1 h, dosed: Fluorotelomer alcohol 8+2, 80 mg/kg, Female, Harlan Sprague Dawley | 391 | 883 | 2270
3 h, dosed: Fluorotelomer alcohol 8+2, 24 mg/kg, Male, Harlan Sprague Dawley | 425 | 1640 | 3250
3 h, dosed: Fluorotelomer alcohol 8+2, 80 mg/kg, Female, Harlan Sprague Dawley | 870 | 3250 | 8230
6 h, dosed: Fluorotelomer alcohol 8+2, 24 mg/kg, Male, Harlan Sprague Dawley | 365 | 1200 | 3160
6 h, dosed: Fluorotelomer alcohol 8+2, 80 mg/kg, Female, Harlan Sprague Dawley | 1250 | 6470 | 8110
12 h, dosed: Fluorotelomer alcohol 8+2, 24 mg/kg, Male, Harlan Sprague Dawley | 222 | 930 | 2590
12 h, dosed: Fluorotelomer alcohol 8+2, 80 mg/kg, Female, Harlan Sprague Dawley | 632 | 3150 | 9470

O=C(O)C(F)(F)C(F)(F)C(F)(F)C(F)(F)C(F)(F)F [Perfluorohexanoic Acid]
concentration in plasma [ng/mL], Rat [1], dosed: Perfluorohexanoic Acid
Details | 40 mg/kg | 80 mg/kg
0.25 h, iv, Male, F344 | 21800 | –
0.25 h, oral, Male, Harlan Sprague Dawley | 27900 | 92000
0.5 h, iv, Female, Harlan Sprague-Dawley | 6320 | –
0.5 h, iv, Male, F344 | 26100 | –
0.5 h, oral, Male, Harlan Sprague Dawley | 64700 | 151000
0.75 h, iv, Female, Harlan Sprague-Dawley | 1990 | –
0.75 h, iv, Male, F344 | 12600 | –
0.75 h, oral, Male, Harlan Sprague Dawley | 55100 | 110000
1 h, iv, Female, Harlan Sprague-Dawley | 327 | –
1 h, iv, Male, F344 | 9120 | –
1 h, oral, Male, Harlan Sprague Dawley | 48300 | 127000
1.5 h, iv, Male, F344 | 7580 | –
3 h, iv, Male, F344 | 3740 | –
3 h, oral, Male, Harlan Sprague Dawley | 34400 | 60100
3 h, oral, Male, Harlan Sprague Dawley - this seems too small | – | 59500
5 min, iv, Male, F344 | 22900 | –
5 min, oral, Male, Harlan Sprague Dawley | 14600 | 59900
6 h, iv, Male, F344 | 3840 | –
6 h, oral, Male, Harlan Sprague Dawley | 18300 | 27700
9 h, oral, Male, Harlan Sprague Dawley | 3710 | 3460
12 h, iv, Male, F344 | 57.2 | –
12 h, oral, Male, Harlan Sprague Dawley | 2040 | –
24 h, iv, Male, F344 | 68.1 | –
24 h, oral, Male, Harlan Sprague Dawley | 222 | 627

dosed: Perfluorohexanoic Acid, 80 mg/kg
Details | concentration in brain, Rat [4] [ng/g] | concentration in kidney, Rat [3] [ng/g] | concentration in liver, Rat [2] [ng/g]
0.5 h, Female, Harlan Sprague Dawley | 1210 | 55900 | 32800
0.5 h, Male, Harlan Sprague Dawley | 2270 | 207000 | 105000
1 h, Female, Harlan Sprague Dawley | 1770 | 98400 | 42200
1 h, Male, Harlan Sprague Dawley | 2670 | 74100 | 87200
3 h, Female, Harlan Sprague Dawley | 703 | 45000 | 8510
3 h, Male, Harlan Sprague Dawley | 1170 | 44300 | 29600
3 h, Male, Harlan Sprague Dawley - this seems too small | 799 | 56500 | 36100
6 h, Female, Harlan Sprague Dawley | – | 14200 | 5010
6 h, Male, Harlan Sprague Dawley | 495 | 10900 | 9650
12 h, Female, Harlan Sprague Dawley | – | 663 | –
12 h, Male, Harlan Sprague Dawley | – | 2880 | 3140
